Test results published in patent publication US9796704B2, “Substituted quinazolines as receptor-type kinase inhibitors” (Symphony Evolution, Inc., priority 2002, dated 2017).

Experiments:
EphB4 = EphB4 (Homo sapiens (Human), UniProt P54760); test: EphB4 kinase inhibition, 33P phosphoryl transfer assay (radiometric); type: biochemical
Description: Phosphorylated substrate products are quantified by scintillation spectrometry.
Kinase activity and compound inhibition are investigated using one or more of the three assay formats described below. The ATP concentrations are selected near its Michaelis-Menten constant (KM) for each individual kinase. Dose-response experiments are performed at ten different inhibitor concentrations in a 384-well plate format. […] These parameters are obtained by nonlinear regression algorithm built into ActivityBase software (available from ID Business Solutions Ltd., of Guildford, Surrey, UK). ^33P Phosphoryl Transfer Assay (Radiometric)
Greiner 384-well white clear bottom high binding plates (available from Greiner Bio-One, Inc., of Longwood, Fla.) are coated with 2 μg/well of protein or peptide substrate in a 50 μL volume overnight at ambient temperature. […] The coating solution is aspirated and the plates are washed once with 50 μL of assay buffer and padded dry. Subsequently compounds and enzymes are mixed with γ ^33P-ATP (3.3 μCi/nmol) in a total volume of 20 uL in suitable assay buffers (see Table 2). For example the final EphB4 reaction solution contains 20 mM TrisHCl, pH 7.5, 10 mM MgCl2, 0.01% Triton X-100, 0.1 mM NaVO3, 5 nM EphB4 enzyme and 5 μM ATP. […] The plates are subsequently washed 6-12 times with PBST or TBS buffer.

EGFR = EGFR (Homo sapiens (Human), UniProt P00533); test: EGFR kinase inhibition, luciferase-coupled chemiluminescent assay (LCCA); conditions: read-out: EGFR IC50
EGFR, sequence (P00533 672-1210): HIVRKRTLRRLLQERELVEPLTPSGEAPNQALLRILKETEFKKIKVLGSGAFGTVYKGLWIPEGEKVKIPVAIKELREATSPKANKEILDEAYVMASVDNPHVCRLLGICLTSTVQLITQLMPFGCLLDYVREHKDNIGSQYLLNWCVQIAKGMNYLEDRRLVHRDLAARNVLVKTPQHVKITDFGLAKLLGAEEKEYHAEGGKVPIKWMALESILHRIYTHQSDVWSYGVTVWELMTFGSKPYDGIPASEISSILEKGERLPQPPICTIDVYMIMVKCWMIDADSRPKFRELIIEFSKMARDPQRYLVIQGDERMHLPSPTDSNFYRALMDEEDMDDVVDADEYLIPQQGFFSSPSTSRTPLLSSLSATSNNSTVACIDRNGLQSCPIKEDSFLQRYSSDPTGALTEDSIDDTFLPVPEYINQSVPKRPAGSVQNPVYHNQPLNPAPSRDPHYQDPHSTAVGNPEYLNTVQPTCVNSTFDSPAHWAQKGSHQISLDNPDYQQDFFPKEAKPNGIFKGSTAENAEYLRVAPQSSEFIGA

EphA2 = EphA2 (Homo sapiens (Human), UniProt P29317); test: EphA2 kinase inhibition, luciferase-coupled chemiluminescent assay (LCCA); conditions: read-out: EphA2 IC50
EphA2, sequence (P29317 598-890): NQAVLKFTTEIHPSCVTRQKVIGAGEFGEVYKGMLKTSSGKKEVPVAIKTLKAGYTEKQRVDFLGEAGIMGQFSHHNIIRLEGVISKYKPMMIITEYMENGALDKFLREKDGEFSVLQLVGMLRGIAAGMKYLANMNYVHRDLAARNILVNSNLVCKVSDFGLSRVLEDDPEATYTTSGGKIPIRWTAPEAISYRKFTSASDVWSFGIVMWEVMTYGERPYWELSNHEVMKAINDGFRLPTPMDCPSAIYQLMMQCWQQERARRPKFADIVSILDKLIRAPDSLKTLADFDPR

EphB4, sequence (P54760 605-890): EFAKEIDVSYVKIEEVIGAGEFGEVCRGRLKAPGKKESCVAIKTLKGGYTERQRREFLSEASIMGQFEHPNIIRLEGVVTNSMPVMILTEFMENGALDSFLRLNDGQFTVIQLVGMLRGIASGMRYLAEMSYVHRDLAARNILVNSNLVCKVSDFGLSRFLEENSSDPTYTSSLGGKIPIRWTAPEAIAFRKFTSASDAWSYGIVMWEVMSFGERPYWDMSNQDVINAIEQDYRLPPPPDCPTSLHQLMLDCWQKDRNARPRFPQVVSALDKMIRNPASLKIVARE

SMILES	IC50 (EphB4) [nM]	IC50 (EGFR) [nM]	IC50 (EphA2) [nM]
COc1cc2c(Nc3ccc(Cl)c(Cl)c3)ncnc2cc1OCc1nc(CN2CCOCC2)no1 [Example 143, N-(3,4-dichlorophenyl)-6-(methyloxy)-7-({[3-(morpholin-4-ylmethyl)-1,2,4-oxadiazol-5-yl]methyl}oxy)quinazolin-4-amine]	50 to 1000	< 50	–
COc1cc2c(Nc3ccc(Cl)c(Cl)c3)ncnc2cc1OCc1noc(C2CCCCN2)n1 (stereo not shown) [Example 145, N-(3,4-dichlorophenyl)-6-(methyloxy)-7-{[(5-piperidin-2-yl-1,2,4-oxadiazol-3-yl)methyl]oxy}quinazolin-4-amine]	50 to 1000	< 50	–
COc1cc2c(Nc3ccc(Cl)c(Cl)c3)ncnc2cc1OCC1CN(Cc2ccccc2)CCO1 (stereo not shown) [Example 147, N-(3,4-dichlorophenyl)-6-(methyloxy)-7-({[4-(phenylmethyl)morpholin-2-yl]methyl}oxy)quinazolin-4-amine]	50 to 1000	< 50	–
COc1cc2c(Nc3ccc(Cl)c(Cl)c3)ncnc2cc1OCc1noc(C2CCCNC2)n1 (stereo not shown) [Example 153, N-(3,4-dichlorophenyl)-6-(methyloxy)-7-{[(5-piperidin-3-yl-1,2,4-oxadiazol-3-yl)methyl]oxy}quinazolin-4-amine]	50 to 1000	< 50	–
COc1cc2c(Nc3ccc(Cl)c(Cl)c3)ncnc2cc1OCc1noc(C2CCCN(C)C2)n1 (stereo not shown) [Example 156, N-(3,4-dichlorophenyl)-6-(methyloxy)-7-({[5-(1-methylpiperidin-3-yl)-1,2,4-oxadiazol-3-yl]methyl}oxy)quinazolin-4-amine]	50 to 1000	< 50	–
COc1cc2c(Nc3ccc(Cl)c(Cl)c3)ncnc2cc1OCc1ccncc1 [Example 172, N-(3,4-dichlorophenyl)-6-(methyloxy)-7-[(pyridin-4-ylmethyl)oxy]quinazolin-4-amine]	< 50	< 50	–
COc1cc2c(Nc3ccc(Cl)c(Cl)c3)ncnc2cc1OCc1cccnc1 [Example 179, N-(3,4-dichlorophenyl)-6-(methyloxy)-7-[(pyridin-3-ylmethyl)oxy]quinazolin-4-amine]	–	< 50	1000 to 20000
COc1cc2c(Nc3ccc(Cl)c(Cl)c3)ncnc2cc1OCc1nc(N2CCNCC2)no1 [Example 217, N-(3,4-dichlorophenyl)-6-(methyloxy)-7-{[(3-piperazin-1-yl-1,2,4-oxadiazol-5-yl)methyl]oxy}quinazolin-4-amine]	–	–	< 50
COc1cc2c(Nc3ccc(Cl)c(Cl)c3)ncnc2cc1OCc1csc(-c2ccc(C(F)(F)F)cc2)n1 [Example 222, N-(3,4-dichlorophenyl)-6-(methyloxy)-7-[({2-[4-(trifluoromethyl)phenyl]-1,3-thiazol-4-yl}methyl)oxy]quinazolin-4-amine]	50 to 1000	< 50	–
COc1cc2c(Nc3ccc(Cl)c(Cl)c3)ncnc2cc1OCc1c(F)cccc1F [Example 233, N-(3,4-dichlorophenyl)-7-{[(2,6-difluorophenyl)methyl]oxy}-6-(methyloxy)quinazolin-4-amine]	< 50	< 50	–
CCCN1CCCOC(COc2cc3ncnc(Nc4ccc(Cl)c(Cl)c4)c3cc2OC)C1 (stereo not shown) [Example 258, N-(3,4-dichlorophenyl)-6-(methyloxy)-7-{[(4-propyl-1,4-oxazepan-2-yl)methyl]oxy}quinazolin-4-amine]	50 to 1000	< 50	–
COc1cc2c(Nc3ccc(Cl)c(Cl)c3)ncnc2cc1OCC1CN(CC2CC2)CCCO1 (stereo not shown) [Example 259, 7-({[4-(cyclopropylmethyl)-1,4-oxazepan-2-yl]methyl}oxy)-N-(3,4-dichlorophenyl)-6-(methyloxy)quinazolin-4-amine]	50 to 1000	< 50	–
COc1cc2c(Nc3ccc(Cl)c(Cl)c3)ncnc2cc1OCC1CN(C2CCCC2)CCO1 (stereo not shown) [Example 269, 7-{[(4-cyclopentylmorpholin-2-yl)methyl]oxy}-N-(3,4-dichlorophenyl)-6-(methyloxy)quinazolin-4-amine]	50 to 1000	< 50	–
COC(=O)CCN1CCOC(COc2cc3ncnc(Nc4ccc(Cl)c(Cl)c4)c3cc2OC)C1 (stereo not shown) [Example 276, methyl 3-[2-({[4-[(3,4-dichlorophenyl)amino]-6-(methyloxy)quinazolin-7-yl]oxy}methyl)morpholin-4-yl]propanoate]	–	< 50	–

More lines, now with the values ahead:

IC50 (EphB4) [nM]	IC50 (EGFR) [nM]	IC50 (EphA2) [nM]	SMILES
< 50	< 50	–	COc1cc2c(Nc3ccc(Br)c(Cl)c3)ncnc2cc1O[C@H]1CO[C@@H]2C3OC(C)(C)O[C@H]3O[C@H]12 (stereo partly drawn) [Example 80, 3,6-anhydro-5-O-[4-[(4-bromo-3-chlorophenyl)amino]-6-(methyloxy)quinazolin-7-yl]-1,2-O-(1-methylethylidene)-beta-L-xylo-hexofuranose]
< 50	< 50	–	COc1cc2c(Nc3ccc(F)c(F)c3F)ncnc2cc1O[C@@H]1CO[C@@H]2[C@H]1OC[C@H]2F [Example 84, 1,4:3,6-dianhydro-2-deoxy-2-fluoro-5-O-{6-(methyloxy)-4-[(2,3,4-trifluorophenyl)amino]quinazolin-7-yl}-D-iditol]
< 50	< 50	–	COc1cc2c(Nc3cccc(F)c3F)ncnc2cc1O[C@@H]1CO[C@@H]2[C@H]1OC[C@H]2F [Example 92, 1,4:3,6-dianhydro-2-deoxy-5-O-[4-[(2,3-difluorophenyl)amino]-6-(methyloxy)quinazolin-7-yl]-2-fluoro-D-iditol]
< 50	< 50	–	COc1cc2c(Nc3ccc(Br)c(Cl)c3Cl)ncnc2cc1O[C@@H]1CO[C@@H]2[C@H]1OC[C@H]2F [Example 103, 1,4:3,6-dianhydro-5-O-[4-[(4-bromo-2,3-dichlorophenyl)amino]-6-(methyloxy)quinazolin-7-yl]-2-deoxy-2-fluoro-D-iditol]
< 50	< 50	–	COc1cc2c(Nc3cc(Cl)c(Cl)cc3F)ncnc2cc1O[C@@H]1CO[C@@H]2[C@H]1OC[C@H]2F [Example 105, 1,4:3,6-dianhydro-2-deoxy-5-O-[4-[(4,5-dichloro-2-fluorophenyl)amino]-6-(methyloxy)quinazolin-7-yl]-2-fluoro-D-iditol]
< 50	< 50	–	COc1cc2c(Nc3cccc(Cl)c3)ncnc2cc1O[C@@H]1CO[C@@H]2[C@H]1OC[C@H]2F [Example 114, 1,4:3,6-dianhydro-5-O-[4-[(3-chlorophenyl)amino]-6-(methyloxy)quinazolin-7-yl]-2-deoxy-2-fluoro-D-iditol]
< 50	< 50	–	COc1cc2c(Nc3ccc(Cl)cc3Cl)ncnc2cc1O[C@@H]1CO[C@@H]2[C@H]1OC[C@H]2F [Example 117, 1,4:3,6-dianhydro-2-deoxy-5-O-[4-[(2,4-dichlorophenyl)amino]-6-(methyloxy)quinazolin-7-yl]-2-fluoro-D-iditol]
< 50	< 50	–	COc1cc2c(Nc3cccc(Br)c3)ncnc2cc1O[C@@H]1CO[C@@H]2[C@H]1OC[C@H]2F [Example 129, 1,4:3,6-dianhydro-5-O-[4-[(3-bromophenyl)amino]-6-(methyloxy)quinazolin-7-yl]-2-deoxy-2-fluoro-D-iditol]
< 50	< 50	–	COc1cc(OC)c(Nc2ncnc3cc(O[C@@H]4CO[C@@H]5[C@H]4OC[C@H]5F)c(OC)cc23)cc1Cl [Example 135, 1,4:3,6-dianhydro-5-O-[4-{[5-chloro-2,4-bis(methyloxy)phenyl]amino}-6-(methyloxy)quinazolin-7-yl]-2-deoxy-2-fluoro-D-iditol]
< 50	< 50	–	COc1cc2c(Nc3ccc(F)c(Cl)c3F)ncnc2cc1O[C@@H]1CO[C@@H]2[C@H]1OC[C@H]2F [Example 137, 1,4:3,6-dianhydro-5-O-[4-[(3-chloro-2,4-difluorophenyl)amino]-6-(methyloxy)quinazolin-7-yl]-2-deoxy-2-fluoro-D-iditol]
50 to 1000	< 50	–	COc1cc2c(Nc3ccc(Cl)c(Cl)c3)ncnc2cc1OCc1nc(CN(C)C)no1 [Example 139, N-(3,4-dichlorophenyl)-7-[({3-[(dimethylamino)methyl]-1,2,4-oxadiazol-5-yl}methyl)oxy]-6-(methyloxy)quinazolin-4-amine]
50 to 1000	< 50	–	COc1cc2c(Nc3ccc(Cl)c(Cl)c3)ncnc2cc1OCc1noc(C2CCNCC2)n1 [Example 141, N-(3,4-dichlorophenyl)-6-(methyloxy)-7-{[(5-piperidin-4-yl-1,2,4-oxadiazol-3-yl)methyl]oxy}quinazolin-4-amine]
50 to 1000	< 50	–	COc1cc2c(Nc3ccc(Cl)c(Cl)c3)ncnc2cc1OCc1noc(C2CCN(C)CC2)n1 [Example 142, N-(3,4-dichlorophenyl)-6-(methyloxy)-7-({[5-(1-methylpiperidin-4-yl)-1,2,4-oxadiazol-3-yl]methyl}oxy)quinazolin-4-amine]
